Data set [1] concerns the target GSK3α (GST-full length GSK3α) (Homo sapiens (Human), UniProt P49840). The data set can be described thus: GSK3α TR-FRET kinase assay. To be noted: read-out: GSK3-A (TR-FRET 1 mM ATP); GMean; IC50; 1 mM ATP; geometric mean. It is filed as biochemical. An outline of the steps:
(§1)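 Full-length GST-tagged human enzyme (1 nM) is exposed to test compound for 30 min before substrates are added. Phosphorylation of a primed biotinylated glycogen synthase peptide proceeds 100 min at room temperature at low ATP (4 μM α; 2 μM β) or high ATP (1 mM). Product is quantified by TR-FRET.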

In data set [2] the target is GSK3b (GST-full length GSK3b) (Homo sapiens (Human), UniProt P49841). The data set can be described thus: GSK3b TR-FRET kinase assay. The conditions noted are these: read-out: GSK3-B (TR-FRET 1 mM ATP); GMean; IC50; 1 mM ATP; geometric mean. It is filed as biochemical. Summed up: as §1
Data set [3] in a line: Microsomal stability (MIC), human. It is filed as in vitro ADME. The conditions noted are these: human liver microsomes. The procedure:
(§2) Stability of compound in liver microsomes was tested in duplicate by incubating compound at 1 μM for 60 minutes at 37° C. Compound level at 60 minutes was compared to level at 0 minutes, and percent remaining was calculated. Assay Parameters
(§3) Available species: human and mouse (CD-1). Compound requirements: 5 μL of a 10 mM DMSO solution. Incubation time: 60 minutes at 37° C. Test Concentration: 1 μM.
(§4) Microsomes with NADPH without compound-matrix interference. Microsomes plus compound without NADPH—non-enzymatic instability.

A short description of data set [4]: Microsomal stability (MIC), mouse. Type of data set: in vitro ADME, mouse (CD-1). To be noted: mouse liver microsomes. On the procedure: as §2, §3, §4
On the technique in general: Liver microsomes are a subcellular fraction often used to study metabolism.

Data set [5] has as its system MDR1-MDCK cell monolayers. The data set can be described thus: MDR1/MDCK assay (blood-brain barrier penetration potential). Type of data set: in vitro ADME. To be noted: 5 μM, pH 7.4, 120 minutes; for MDCK permeability (MDR1-MDCK); Mean; Papp (A − B): A to B; for MDCK permeability (MDR1-MDCK); Mean; Papp (B − A): B to A. The procedure:
The MDR1/MDCK assay is run at Absorption Systems. This assay is used to determine the blood-brain barrier (BBB) penetration potential of a test compound using MDR1-MDCK cell monolayers. Catalog number EA203.
• Test compound at 5 μM in HBSSg with maximum DMSO concentration not greater than 1%.
• Confluent monolayers of MDR1-MDCK cells, 7 to 11 days old.
• Receiver well with 1% BSA in modified Hanks buffer (HBSSg) • Apical and basolateral side at pH 7.4 • Dose two monolayers in each direction (N=2) • Dose apical side for (A to B) assessment • Dose basolateral side for (B to A) assessment • Sample both apical and basolateral sides at 120 minutes • Determine the concentrations of test compound using a generic LC-MS/MS method with a minimum 4 point calibration curve.
• The quality of the cell monolayer batch is verified using control compounds before monolayers are released for use • The quality of each monolayer used in the assay is verified by a TEER measurement and by calculating the Papp for a control compound.

GSK3α (GST-full length GSK3α), sequence (P49840 whole entry): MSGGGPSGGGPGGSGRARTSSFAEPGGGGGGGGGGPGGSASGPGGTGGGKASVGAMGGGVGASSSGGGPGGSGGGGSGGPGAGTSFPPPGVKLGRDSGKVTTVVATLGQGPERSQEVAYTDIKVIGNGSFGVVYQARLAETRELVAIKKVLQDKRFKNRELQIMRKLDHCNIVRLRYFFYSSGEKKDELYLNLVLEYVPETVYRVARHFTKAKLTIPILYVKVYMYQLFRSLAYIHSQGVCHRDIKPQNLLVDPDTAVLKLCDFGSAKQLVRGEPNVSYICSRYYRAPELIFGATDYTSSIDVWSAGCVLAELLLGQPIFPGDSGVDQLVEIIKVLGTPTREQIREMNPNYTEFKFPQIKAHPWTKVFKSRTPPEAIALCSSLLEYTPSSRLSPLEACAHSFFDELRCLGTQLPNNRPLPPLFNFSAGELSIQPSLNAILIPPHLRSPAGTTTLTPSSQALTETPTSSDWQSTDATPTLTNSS
GSK3b (GST-full length GSK3b), sequence (P49841 whole entry): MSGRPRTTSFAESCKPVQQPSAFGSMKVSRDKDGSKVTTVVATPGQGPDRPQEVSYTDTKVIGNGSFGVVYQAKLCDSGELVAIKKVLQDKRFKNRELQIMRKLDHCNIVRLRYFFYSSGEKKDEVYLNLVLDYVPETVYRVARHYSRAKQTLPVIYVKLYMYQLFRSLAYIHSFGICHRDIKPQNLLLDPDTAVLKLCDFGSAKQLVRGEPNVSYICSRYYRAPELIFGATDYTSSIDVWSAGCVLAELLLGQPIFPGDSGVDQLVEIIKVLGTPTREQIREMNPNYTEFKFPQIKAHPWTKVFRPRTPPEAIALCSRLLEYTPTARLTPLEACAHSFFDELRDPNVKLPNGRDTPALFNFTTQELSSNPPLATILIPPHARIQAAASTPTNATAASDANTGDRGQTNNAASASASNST

For the molecule `CC(C)(C)Cc1[nH]nc2c1C(C)(c1cc(S(C)(=O)=O)ccc1F)C1=C(CC(C)(C)CC1=O)N2` (centres unmarked) [Compound 125976], in data set [1], the IC50 lay in the range of 1000 to 5000 nM. In data set [2], the IC50 lay in the range of 100 to 1000 nM. Moreover, in data set [3], the “Microsome stability (human); in vitro T1/2” value (from here on “Microsome stability (human)”) was found to be 26.2 min. Moreover, in data set [4], the “Microsome stability (mouse); in vitro T1/2” value (from here on “Microsome stability (mouse)”) came to 36 min. Besides, in data set [5], the “MDCK permeability (MDR1-MDCK); Mean; Papp Ratio (B − A/A − B) (efflux ratio)” value (from here on “MDCK permeability (MDR1-MDCK) … (efflux ratio)”) is 301, the “MDCK permeability (MDR1-MDCK); Mean; Papp (A − B)” value (from here on “MDCK permeability … (A − B)”) is recorded as 0.2 10^−6 cm/s and the “MDCK permeability (MDR1-MDCK); Mean; Papp (B − A)” value (shortened to “MDCK permeability … (B − A)”) is reported as 61.2 10^−6 cm/s.
Take `CN1CC2(C3=C(CC(C)(C)CC3=O)Nc3n[nH]c(CC(C)(C)C)c32)c2ccccc21` (centres unmarked) [Compound 125978]: in data set [1], the IC50 fell in the range of 1000 to 5000 nM. Further, the IC50 in data set [2] lay within 100 to 1000 nM. Also, in data set [3], the “Microsome stability (human)” value is given as 0.6 min. For the same molecule, the “Microsome stability (mouse)” value in data set [4] is given as 0.6 min. In addition, in data set [5], the “MDCK permeability (MDR1-MDCK) … (efflux ratio)” value was 7.49, the “MDCK permeability … (A − B)” value was 10.8 10^−6 cm/s and the “MDCK permeability … (B − A)” value is reported as 81.2 10^−6 cm/s.
`Cn1cncc1-c1cccc(C2(C)C3=C(CC(C)(C)CC3=O)Nc3n[nH]c(CC(C)(C)C)c32)c1` (centres unmarked) [Compound 126014]: in data set [1], the IC50 lay within 100 to 1000 nM. The IC50 in data set [2] fell in the range of 100 to 1000 nM. In addition, in data set [5], the “MDCK permeability (MDR1-MDCK) … (efflux ratio)” value came to 187, the “MDCK permeability … (A − B)” value is 0.17 10^−6 cm/s and the “MDCK permeability … (B − A)” value is reported as 32.1 10^−6 cm/s.
`C[S+]([O-])c1cccc(C2(C)C3=C(CC(C)(C)CC3=O)Nc3n[nH]c(CC(C)(C)C)c32)c1` (centres unmarked) [Compound 126190]: the IC50 in data set [1] was in the range of 1000 to 5000 nM. Moreover, the IC50 in data set [2] fell in the range of 100 to 1000 nM. In addition, in data set [5], the “MDCK permeability (MDR1-MDCK) … (efflux ratio)” value worked out at 199, the “MDCK permeability … (A − B)” value is 0.08 10^−6 cm/s and the “MDCK permeability … (B − A)” value is recorded as 15.7 10^−6 cm/s.
As for `Cn1cc(-c2cccc(C3(C)C4=C(CC(C)(C)CC4=O)Nc4n[nH]c(CC(C)(C)C)c43)c2)cn1` (centres unmarked) [Compound 126393], the IC50 in data set [1] lay in the range of 1000 to 5000 nM. The IC50 in data set [2] fell in the range of 100 to 1000 nM. Moreover, in data set [5], the “MDCK permeability (MDR1-MDCK) … (efflux ratio)” value worked out at 92.5, the “MDCK permeability … (A − B)” value is reported as 0.59 10^−6 cm/s and the “MDCK permeability … (B − A)” value is reported as 54.5 10^−6 cm/s.
For `CC(C)(C)Cc1[nH]nc2c1C(C)(c1cccc(S(=O)(=O)C(F)(F)F)c1)C1=C(CC(C)(C)CC1=O)N2` (centres unmarked) [Compound 126395] the same measures were 1000 to 5000 nM, 100 to 1000 nM, 8.9, 6.48 10^−6 cm/s and 57.6 10^−6 cm/s.
`Cc1ccc(S(C)(=O)=O)cc1C1(C)C2=C(CC(C)(C)CC2=O)Nc2n[nH]c(CC(C)(C)C)c21` (centres unmarked) [Compound 126397]: the IC50 was 1000 to 5000 nM in data set [1] and not above 100 nM in data set [2]. In addition, the “Microsome stability (human)” value in data set [3] amounted to 104.9 min. The “Microsome stability (mouse)” value in data set [4] is on record as more than 145 min.
Regarding `CC(C)(C)Cc1[nH]nc2c1C(C)(c1cccc(N3CCOCC3)c1)C1=C(CC(C)(C)CC1=O)N2` (centres unmarked) [Compound 126400], the IC50 in data set [1] lay in the range of 1000 to 5000 nM. Further, in data set [2], the IC50 lay in the range of 100 to 1000 nM. In data set [5], the “MDCK permeability (MDR1-MDCK) … (efflux ratio)” value is on record as 119, the “MDCK permeability … (A − B)” value is 0.41 10^−6 cm/s and the “MDCK permeability … (B − A)” value is listed as 48.9 10^−6 cm/s.
On to `CC1(C)CC(=O)C2=C(C1)Nc1n[nH]c(C3CC(F)(F)C3)c1C21COc2ccccc21` (centres unmarked) [Compound 127430], for which the IC50 in data set [1] lay within 1000 to 5000 nM; in data set [2], 100 to 1000 nM. The “Microsome stability (human)” value in data set [3] is on record as more than 145 min. Also, the “Microsome stability (mouse)” value in data set [4] is recorded as 74.5 min.

The record behind these values is patent publication US20250313563A1, “GLYCOGEN SYNTHASE KINASE 3 INHIBITORS AND USES THEREOF” (The Broad Institute, Inc., priority 2022, published 2025).
